“Also recorded” adds a separate entry of the source. Where two headings read alike, the source gives them in different places.
What was measured:
[1] = biological target: T1, serotonin 5-HT1A receptors (Rattus norvegicus, UniProt P19327); assay: [35S]GTPγS binding G-protein activation assay, rat hippocampal membranes; format: biochemical; details: for Emax: read-out: Emax, stimulation of [35S]GTPγS binding relative to 5-HT
T1 construct: Hippocampi were dissected and homogenized in 20 volumes of buffer A; from tissue; host or cells: rat hippocampus membranes (male Sprague-Dawley)
T1 sequence (P19327 1-422): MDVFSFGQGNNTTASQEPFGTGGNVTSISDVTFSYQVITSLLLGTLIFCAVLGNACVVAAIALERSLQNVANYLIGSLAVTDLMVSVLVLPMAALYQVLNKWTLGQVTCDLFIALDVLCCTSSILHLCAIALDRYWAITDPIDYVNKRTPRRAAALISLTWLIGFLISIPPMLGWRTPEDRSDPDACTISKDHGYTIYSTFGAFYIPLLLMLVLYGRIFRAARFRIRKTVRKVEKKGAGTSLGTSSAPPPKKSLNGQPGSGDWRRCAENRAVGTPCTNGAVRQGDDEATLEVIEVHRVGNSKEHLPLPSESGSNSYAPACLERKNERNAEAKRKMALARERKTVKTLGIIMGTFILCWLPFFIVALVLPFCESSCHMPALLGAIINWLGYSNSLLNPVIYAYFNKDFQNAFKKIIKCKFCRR
Description: Agonist efficacy for stimulation of G-protein activation at serotonin 5-HT1A receptors can be determined by [^35S]GTPγS binding assays as follows. Experiments employed brains of male Sprague-Dawley rats which were stored at −70° C. before use in binding assays. Experiments were carried out in triplicate and repeated at least three times. Frozen brains were thawed in ice-cold buffer A (50 mM Hepes containing 150 mM NaCl, 0.2 mM EDTA, 1 mM GTP, 10 μM pargyline; pH 7.4, 23° C.). Hippocampi were dissected and homogenized in 20 volumes of buffer A before incubation at 37° C. for 10 min to dissociate endogenous neurotransmitters from receptors. The homogenate was centrifuged at 20 000 g for 15 min, at 4° C. The pellet was re-suspended in buffer A and recentrifuged as before. The pellet was then re-suspended in buffer B (50 mM Hepes containing 150 mM NaCl, 0.2 mM EDTA, 5 mM MgCl2, 100 μM GDP, 10 μM pargyline), centrifuged as before and re-suspended in buffer B. Membranes were incubated in buffer B with test compounds and 0.1 nM [^35S]GTPγS for 60 min at 37° C. The incubation was terminated by rapid filtration through Whatman GF-B fiber filters using a Brandel harvester. Radioactivity retained on the filters was measured by liquid scintillation counting. Data were analyzed using a nonlinear curve-fitting program (Prism, Graphpad Software, San Diego, Calif., USA), and are expressed as mean value±S.E.M.
It should be noted that 5-HT can activate different 5-HT receptors. Herein, only the proportion of 5-HT's effect which is 5-HT1A receptor-dependent was considered in the calculations.

[2] = system: TBZ-treated rats (catalepsy); assay: Cross-legged position (CLP) catalepsy test, TBZ-induced catalepsy; format: in vivo, rat; details: TBZ 2 mg/kg i.p.
Description: Animals were obtained, housed and handled according to the same protocols described for Example 3. Similarly, drugs were prepared and administered according to the same protocols described for Example 3. All compounds were tested at the dose of 0.63 mg/kg.
Catalepsy induction in rats is a recognized model of Parkinsonism (Duty, S., 2011 Br J Pharmacol. 164, 1357-91). Here, catalepsy was measured using the cross-legged position test (CLP test) according to the method described by (Prinssen, E. P., et al., 1998 Eur J Pharmacol. 356, 189-92). Serotonin 5-HT1A receptor agonists were administered to rats (at least 6 per group) by oral administration (p.o.) 55 minutes before the CLP test, TBZ (2 mg/kg) was administered to rats by intraperitoneal (i.p.) route 30 min before testing. In the CLP test, the hind-limbs were placed over the ipsilateral forelimbs and the time during which an animal remained in this position was determined up to maximum of 30 seconds. The test was repeated three times (inter-trial time: 3 minutes) and the mean of the three trials was used for analysis. Animals were put back in their home cage after each set of tests.

[3] = cited from earlier work
[4] = system: patients with chorea associated with HD; details: cited from earlier work
[5] = system: TBZ-treated rats (immobility, depression behavior); assay: Forced Swim Test, 5-HT1A receptor agonists in TBZ-treated rats; format: in vivo, rat; details: TBZ […] i.p.
Description: The experiments were performed on male Wistar rats (170-200 g) obtained from an accredited animal facility at the Jagiellonian University Medical College, Poland. The animals were housed in group of four in controlled environment (ambient temperature […]; relative humidity 55%±10%; 12-h light/dark cycles (lights on at 8:00). Standard laboratory food (LSM-B) and filtered water were freely available. Animals were assigned randomly to treatment groups. All the experiments were performed by two observers unaware of the treatment applied between 9:00 and 14:00 on separate groups of animals. All animals were used only once. All the experimental procedures complied with the European Communities Council Directive of 24 Nov. 1986 (86/609/EEC) and were in accordance with the 1996 NIH Guide for the Care and Use of Laboratory Animals.
Tetrabenazine (TBZ) was dissolved in a vehicle solution of 0.9% saline and dimethylsulfoxide (DMSO) (20%). 10-μl hydrochloric acid (HCl) was then added to achieve full solubilization of the drug. TBZ (1.5 mg/kg) was administered intraperitoneally (i.p.).
All compounds were given in a volume of 2 ml/kg. […]
The experiment was carried out according to a well-characterized method (Porsolt, R. D., et al., 1978 Eur J Pharmacol 47, 379-91). On the first day of an experiment, the animals (at least n=6 per group) were gently individually placed in Plexiglas cylinders (40 cm high, 18 cm in diameter) containing water (17 cm deep) maintained at 23-25° C. for 15 min. On removal from water, the rats were placed for 30 min in a Plexiglas box under a 60 W incandescent filament bulb to dry. On the following day (24 h later), TBZ (1.5 mg/kg) was administered to rats by intraperitoneal (i.p.) route 90 min before testing. Serotonin 5-HT1A receptor agonists were then administered to rats by oral administration (p.o.) 60 minutes before the rats were re-placed in the cylinder and the total duration of their immobility was recorded during the 5-min test period. The swimming behavior entailed active swimming motions, e.g., moving horizontally around in the cylinder, and immobility was assigned when no additional activity was observed other than that necessary to keep the rat's head above the water.

[6] = biological target: other 5-HT, dopaminergic, adrenergic receptors; details: cited from earlier work
[7] = agonist 10 μM, % of stimulation by 5-HT 10 μM (5-HT1A-dependent part)
[8] = 0.63 mg/kg p.o. ((±)8-OH-DPAT s.c.)

## CCCN(CCC)C1CCc2cccc(O)c2C1 (racemic) [(±)8-OH-DPAT, (±)8-hydroxy-2-(di-n-propylamino)tetralin]
[1]; [7]
  Emax, stimulation of [35S]GTPγS binding relative to 5-HT: intermediate between that of buspirone and the other compounds; also recorded: intermediate efficacy
[2]; [8]
  effect on TBZ-induced CLP catalepsy duration: almost no CLP catalepsy; also recorded: significantly decreased durations of immobility
[3]
  oral bioavailability: poorly bioavailable by oral route

## NCCc1c[nH]c2ccc(O)cc12 [5-HT, 5-hydroxytryptamine]
[1]; from WAY100635 (1 μM) co-incubation
  share of 5-HT-induced [35S]GTPγS binding mediated by 5-HT1A receptors: 85%

## COc1cc2c(cc1OC)[C@@H]1CC(=O)[C@@H](CC(C)C)CN1CC2 (racemic) [TBZ, (SS,RR)-3-Isobutyl-9,10-dimethoxy-1,3,4,6,7,11b-hexahydro-pyrido[2,1-a]isoquinolin-2-one]
[4]; 12-week double-blind, placebo-controlled study, placebo 0%
  patients with symptoms suggestive of Parkinsonism: 15%
[4]; 48-week open-label study
  patients with symptoms suggestive of Parkinsonism: 10%
[4]; 80-week open-label study
  patients with symptoms suggestive of Parkinsonism: 3%

## O=C1CC2(CCCC2)CC(=O)N1CCCCN1CCN(c2ncccn2)CC1 [buspirone]
[1]; [7]
  Emax: ~50%
[5]; buspirone 0.63 or 2.5 mg/kg p.o.
  effect on immobility duration in TBZ-treated rats: did not reduce immobility
[5]; buspirone 0.63 or 2.5 mg/kg p.o., listed as Buspirone
  effect on immobility duration in TBZ-treated rats: did not reduce immobility duration significantly
[2]; buspirone 0.63, 2.5 or 5 mg/kg
  effect on TBZ-induced CLP catalepsy duration: does not diminish TBZ-induced catalepsy behavior; also recorded: None of the doses of buspirone showed durations of catalepsy that differed significantly

## Cc1cnc(CNCC2(F)CCN(C(=O)c3ccc(F)c(Cl)c3)CC2)nc1 [derivative 1a, 3-chloro-4-fluorophenyl-[4-fluoro-4-[[(5-methylpyrimidin-2-ylmethyl)amino]methyl]piperidin-1-yl]methanone]
[1]
  Emax: > 90%
[2]; [8]
  effect on TBZ-induced CLP catalepsy duration: almost no CLP catalepsy; also recorded: significantly decreased durations of catalepsy

## Cc1ccc(CNCC2(F)CCN(C(=O)c3ccc(F)c(Cl)c3)CC2)nc1 [befiradol, (3-Chloro-4-fluoro-phenyl)-[4-fluoro-4-{[(5-methyl-pyridin-2-ylmethyl)-amino]-methyl}piperidin-1-yl]methanone]
[1]
  Emax: > 90%
[5]; [8]
  effect on immobility duration in TBZ-treated rats: significantly decreased durations of immobility
[5]; 0.63 mg/kg p.o. ((±)8-OH-DPAT s.c.), listed as Befiradol
  effect on immobility duration in TBZ-treated rats: significantly reduced immobility times
[2]; [8]
  effect on TBZ-induced CLP catalepsy duration: almost no CLP catalepsy; also recorded: significantly decreased durations of immobility
[6]
  pKi at other 5-HT, dopaminergic, adrenergic receptors: less than 6

Reference: patent US11191758B2, “Use of selective serotonin 5-HT1A receptor agonists for treating side-effects of VMAT inhibitors” (Neurolixis, priority 2017, dated 2021)
